# Like-named read-outs stand apart in the source and are kept apart here.
# System: HIV-1 expression in latently infected resting CD4 T cells from HIV-1 Infected Subjects on cART
# Experiment: microbe, parasite or virus in culture
# Assay type: cell-based
# Settings: Human immunodeficiency virus 1, CD4+ T; for fold induction at 0.015 µM: 24 h; for fold induction at 0.3 µM: 0.25 h, read-out: Fold HIV Activation, Geometric Mean, 0.3 μM Carfilzomib, 15 min pulse; for fold induction at 0.04 µM: 4 h, read-out: Fold HIV Activation, Geometric Mean, 40 nM Romidepsin, 4 h pulse
# Procedure: The leukapheresis product was diluted with PBS and layered over Ficoll for isolation of PBMCs. PBMCs were treated with red blood cell lysis buffer and rested overnight (10 million cells/ml) in tissue culture medium (RPMI 1640 supplemented with 10% FBS and Pen/Strep) before the isolation of resting (CD69-CD25-HLA-DR-) CD4 T cells according to the manufacturer's instructions (EasySep Human CD4 T cell Enrichment Kit modified to also deplete CD69+, CD25+, or HLA-DR+ cells). Resting CD4 T cells were cultured in four replicate wells per condition with the indicated compounds or with dimethyl sulfoxide (DMSO, vehicle control) for 6 days. To assess latency reversal that occurs in response to mitogenic activation of T cells, cells were incubated with 50 ng/ml phorbol 12-myristate 13-acetate (PMA) and 500 ng/ml ionomycin. Unless otherwise indicated, continuous exposure was used. Where pulses are indicated, at the end of the pulse, cells were spun three times at 500×g for 5 min, supernatant was decanted and replaced with an equal volume of fresh media. When in combination with another compound that was not pulsed, the compound with continuous exposure was added back at the indicated concentration. The cultures were maintained in the presence of antivirals (elvitegravir and efavirenz at 100 nM each) to prevent viral spread and amplification in order to measure the quantity of virions produced (latency reversal) by the indicated compounds. At the end of the incubation period, cell-free culture supernatants were harvested and HIV-1 RNA levels were quantified by the COBAS® AmpliPrep/COBAS® TaqMan HIV-1 Test, v2.0 (Roche). Romidepsin was used as a control. Romidepsin is a HDAC inhibitor with HIV latency reversal activity (PLoS pathogens (2015), 11(9), e1005142). The combination of a phorbol ester (PMA) and a calcium ionophore (ionomycin) was also used as a mitogenic control that has strong HIV latency reversal activity. As this combination induces global T cell proliferation and activation, systemic administration would likely induce significant toxicity. As such, PMA and ionomycin are useful strictly as a tool to monitor the amount of virus that can be produced in response to a strongly activating stimuli.
compound,measurement,setting,value
"CC(C)C[C@H](NC(=O)[C@H](Cc1ccccc1)NC(=O)c1cnccn1)B(O)O [Bortezomib, bortezomib, reference compound]",fold induction at 0.015 µM,"read-out: Fold HIV Activation, 15 nM bortezomib, 24 hr pulse, individual subjects, Table 8",3.47
same,fold induction at 0.015 µM,"read-out: Fold HIV Activation, 15 nM bortezomib, 24 hr pulse, individual subjects, Table 9",3.47
same,fold induction at 0.015 µM,"read-out: Fold HIV Activation, Geometric Mean, 15 nM Bortezomib 24 h pulse, geometric mean of subjects, Table 5 (n = 10)",1.36
same,fold induction at 0.015 µM,"read-out: Fold HIV Activation, Geometric Mean, 15 nM bortezomib, 24 hr pulse, geometric mean of subjects, Table 8 (n = 2)",3.64
same,fold induction at 0.015 µM,"read-out: Fold HIV Activation, Geometric Mean, 15 nM bortezomib, 24 hr pulse, geometric mean of subjects, Table 9 (n = 2)",3.64
same,fold induction at 0.015 µM,"read-out: Fold HIV Activation, Geometric Mean, 15 nM bortezomib, 24 hr pulse, geometric mean of subjects, Table 10 (n = 3)",2.23
"CC(C)C[C@H](NC(=O)[C@H](CCc1ccccc1)NC(=O)CN1CCOCC1)C(=O)N[C@@H](Cc1ccccc1)C(=O)N[C@@H](CC(C)C)C(=O)[C@@]1(C)CO1 [Carfilzomib, carfilzomib, reference compound]",fold induction at 0.3 µM,"geometric mean of subjects, Table 6 (n = 9)",1.04
same,fold induction at 0.3 µM,"geometric mean of subjects, Table 11 (n = 3)",0.94
same,fold induction at 0.3 µM,"geometric mean of subjects, Table 12 (n = 3)",0.94
N#Cc1ncn(CC(=O)Nc2ccc3oc4ccccc4c3c2)n1 [Compound 1],fold induction at 1 µM,"read-out: Fold HIV Activation, Geometric Mean, 1 μM Compound 1, geometric mean of subjects, Table 1 (n = 10)",1.03
same,fold induction at 3 µM,"read-out: Fold HIV Activation, Geometric Mean, 3 μM Compound 1, geometric mean of subjects, Table 1 (n = 10)",2.94
same,fold induction at 3 µM,"read-out: Fold HIV Activation, Geometric Mean, 3 μM Compound 1, geometric mean of subjects, Table 5 (n = 10)",3.12
same,fold induction at 3 µM,"read-out: Fold HIV Activation, Geometric Mean, 3 μM Compound 1, geometric mean of subjects, Table 6 (n = 9)",3.53
same,fold induction at 3 µM,"read-out: Fold HIV Activation, Geometric Mean, 3 μM Compound 1, geometric mean of subjects, Table 7 (n = 7)",5.92
same,fold induction at 6 µM,"read-out: Fold HIV Activation, Geometric Mean, 6 μM Compound 1, geometric mean of subjects, Table 1 (n = 10)",6.32
COc1cc2c(cc1NC(=O)Cn1cnc(C#N)n1)oc1ccccc12 [Compound 2],fold induction at 1 µM,"144 h, read-out: Fold HIV Activation, 1 μM Compound 2, 6 days, individual subjects, Table 2",1.04
same,fold induction at 6 µM,"144 h, read-out: Fold HIV Activation, 6 μM Compound 2, 6 days, individual subjects, Table 2",4.41
same,fold induction at 3 µM,"read-out: Fold HIV Activation, 3 μM Compound 2, individual subjects, Table 8",3.42
same,fold induction at 1 µM,"read-out: Fold HIV Activation, Geometric Mean, 1 μM Compound 2, geometric mean of subjects, Table 2 (n = 8)",1.09
same,fold induction at 3 µM,"read-out: Fold HIV Activation, Geometric Mean, 3 μM Compound 2, geometric mean of subjects, Table 2 (n = 8)",2.76
same,fold induction at 3 µM,"read-out: Fold HIV Activation, Geometric Mean, 3 μM Compound 2, geometric mean of subjects, Table 8 (n = 2)",2.46
same,fold induction at 3 µM,"read-out: Fold HIV Activation, Geometric Mean, 3 μM Compound 2, geometric mean of subjects, Table 11 (n = 3)",2.75
same,fold induction at 6 µM,"read-out: Fold HIV Activation, Geometric Mean, 6 μM Compound 2, geometric mean of subjects, Table 2 (n = 8)",3.56
"N#Cc1ncn(CC(=O)Nc2ccc3c(c2)C(=O)c2ccccc2-3)n1 [Compound 3, 2-(3-cyano-1H-1,2,4-triazol-1-yl)-N-(9-oxo-9H-fluoren-2-yl)acetamide]",fold induction at 6 µM,"144 h, read-out: Fold HIV Activation, 6 μM Compound 3, 6 days, individual subjects, Table 3",3.75
same,fold induction at 1 µM,"read-out: Fold HIV Activation, Geometric Mean, 1 μM Compound 3, geometric mean of subjects, Table 3 (n = 8)",1.62
same,fold induction at 3 µM,"read-out: Fold HIV Activation, Geometric Mean, 3 μM Compound 3, geometric mean of subjects, Table 3 (n = 8)",2.31
same,fold induction at 3 µM,"read-out: Fold HIV Activation, Geometric Mean, 3 μM Compound 3, geometric mean of subjects, Table 9 (n = 2)",1.99
same,fold induction at 3 µM,"read-out: Fold HIV Activation, Geometric Mean, 3 μM Compound 3, geometric mean of subjects, Table 12 (n = 3)",2.59
same,fold induction at 6 µM,"read-out: Fold HIV Activation, Geometric Mean, 6 μM Compound 3, geometric mean of subjects, Table 3 (n = 8)",2.61
"C#CCOc1cc2c(cc1NC(=O)Cn1cnc(C#N)n1)oc1ccccc12 [Compound 4, 2-(3-cyano-1H-1,2,4-triazol-1-yl)-N-(2-(prop-2-yn-1-yloxy)dibenzo[b,d]furan-3-yl)acetamide]",fold induction at 1 µM,"144 h, read-out: Fold HIV Activation, 1 μM Compound 4, 6 days, individual subjects, Table 4",1.09
same,fold induction at 6 µM,"144 h, read-out: Fold HIV Activation, 6 μM Compound 4, 6 days, individual subjects, Table 4",3.03
same,fold induction at 1 µM,"read-out: Fold HIV Activation, Geometric Mean, 1 μM Compound 4, geometric mean of subjects, Table 4 (n = 5)",1.09
same,fold induction at 3 µM,"read-out: Fold HIV Activation, Geometric Mean, 3 μM Compound 4, geometric mean of subjects, Table 4 (n = 5)",3.54
same,fold induction at 3 µM,"read-out: Fold HIV Activation, Geometric Mean, 3 μM Compound 4, geometric mean of subjects, Table 10 (n = 3)",3.54
same,fold induction at 6 µM,"read-out: Fold HIV Activation, Geometric Mean, 6 μM Compound 4, geometric mean of subjects, Table 4 (n = 5)",3.97
"COC[C@H](NC(=O)c1cnc(C)s1)C(=O)N[C@@H](COC)C(=O)N[C@@H](Cc1ccccc1)C(=O)[C@@]1(C)CO1 [Oprozomib, oprozomib, reference compound]",fold induction at 0.1 µM,"1 h, read-out: Fold HIV Activation, Geometric Mean, 100 nM Oprozomib, 1 hr pulse, geometric mean of subjects, Table 7 (n = 7)",2.37
"C/C=C1\NC(=O)[C@H]2CSSCC/C=C/[C@H](CC(=O)N[C@H](C(C)C)C(=O)N2)OC(=O)[C@H](C(C)C)NC1=O [Romidepsin, reference compound]",fold induction at 0.04 µM,"geometric mean of subjects, Table 1 (n = 10)",2.73
same,fold induction at 0.04 µM,"geometric mean of subjects, Table 2 (n = 8)",3.16
same,fold induction at 0.04 µM,"geometric mean of subjects, Table 3 (n = 8)",3.16
same,fold induction at 0.04 µM,"geometric mean of subjects, Table 4 (n = 5)",2.33

# Reference: patent US10059697B2, “Compounds and combinations for the treatment of HIV” (priority 2015, dated 2018)
